This is an account of results in the kinase profiling compilation of Christmann-Franck et al. (2016).

Common to all, as to assay: Free Choice Kinase Assay Projects, Flashplate
One test concerns the target TEK (human) (UniProt Q02763). The settings on record: compound 10.0 µM; ATP 1 µM.
The target of a further test is AKT1 (human) (UniProt P31749). Conditions: compound 10.0 µM; ATP 3 µM.
Another test addresses IGF1R (human) (UniProt P08069). Conditions: compound 10.0 µM; ATP 1 µM.
The target of another test is PLK1 (human) (UniProt P53350). The settings on record: compound 10.0 µM; ATP 1 µM.
A further test deals with KDR (human) (UniProt P35968). Conditions: compound 10.0 µM; ATP 1 µM.
The next test deals with AURKA (human) (UniProt O14965). The settings on record: compound 10.0 µM; ATP 10 µM.
Another test deals with MET (human) (UniProt P08581). Conditions: compound 10.0 µM; ATP 0.3 µM.
Another test has as its target MAPK10 (human) (UniProt P53779). Conditions: compound 10.0 µM; ATP 0.3 µM.
The next test deals with MAP3K8 (human) (UniProt P41279). Conditions: compound 10.0 µM; ATP 3 µM.
The next test concerns the target NUAK1 (human) (UniProt O60285). The settings on record: compound 10.0 µM; ATP 1 µM.
A further test deals with CDK4 CCND1 (human) (UniProt P11802+P24385). Conditions: compound 10.0 µM; ATP 3 µM.
The target in the next test is EGFR (human) (UniProt P00533). The settings on record: compound 10.0 µM; ATP 0.3 µM.
For another test, the target named is AURKB (human) (UniProt Q96GD4). Conditions: compound 10.0 µM; ATP 10 µM.
A further test addresses SRC (human) (UniProt P12931). The settings on record: compound 10.0 µM; ATP 0.3 µM.
A further test concerns the target PTK2 (human) (UniProt Q05397). The settings on record: compound 10.0 µM; ATP 1 µM.
The target in another test is MAPK14 (human) (UniProt Q16539). Conditions: compound 10.0 µM; ATP 1 µM.
The next test concerns the target PLK4 (human) (UniProt O00444). The settings on record: compound 10.0 µM; ATP 0.3 µM.
A further test addresses CDK2 CCNA2 (human) (UniProt P24941+P20248). The settings on record: compound 10.0 µM; ATP 0.3 µM.
The next test addresses CSNK2A1 (human) (UniProt P68400). Conditions: compound 10.0 µM; ATP 0.1 µM.
For a further test, the target named is PDGFRB (human) (UniProt P09619). Conditions: compound 10.0 µM; ATP 0.3 µM.
The target of a further test is ERBB2 (human) (UniProt P04626). The settings on record: compound 10.0 µM; ATP 1 µM.
The target in another test is AXL (human) (UniProt P30530). Conditions: compound 10.0 µM; ATP 0.3 µM.
The next test addresses EPHB4 (human) (UniProt P54760). Conditions: compound 10.0 µM; ATP 1 µM.

Sequence of AXL (human) (P30530 whole entry, looked up): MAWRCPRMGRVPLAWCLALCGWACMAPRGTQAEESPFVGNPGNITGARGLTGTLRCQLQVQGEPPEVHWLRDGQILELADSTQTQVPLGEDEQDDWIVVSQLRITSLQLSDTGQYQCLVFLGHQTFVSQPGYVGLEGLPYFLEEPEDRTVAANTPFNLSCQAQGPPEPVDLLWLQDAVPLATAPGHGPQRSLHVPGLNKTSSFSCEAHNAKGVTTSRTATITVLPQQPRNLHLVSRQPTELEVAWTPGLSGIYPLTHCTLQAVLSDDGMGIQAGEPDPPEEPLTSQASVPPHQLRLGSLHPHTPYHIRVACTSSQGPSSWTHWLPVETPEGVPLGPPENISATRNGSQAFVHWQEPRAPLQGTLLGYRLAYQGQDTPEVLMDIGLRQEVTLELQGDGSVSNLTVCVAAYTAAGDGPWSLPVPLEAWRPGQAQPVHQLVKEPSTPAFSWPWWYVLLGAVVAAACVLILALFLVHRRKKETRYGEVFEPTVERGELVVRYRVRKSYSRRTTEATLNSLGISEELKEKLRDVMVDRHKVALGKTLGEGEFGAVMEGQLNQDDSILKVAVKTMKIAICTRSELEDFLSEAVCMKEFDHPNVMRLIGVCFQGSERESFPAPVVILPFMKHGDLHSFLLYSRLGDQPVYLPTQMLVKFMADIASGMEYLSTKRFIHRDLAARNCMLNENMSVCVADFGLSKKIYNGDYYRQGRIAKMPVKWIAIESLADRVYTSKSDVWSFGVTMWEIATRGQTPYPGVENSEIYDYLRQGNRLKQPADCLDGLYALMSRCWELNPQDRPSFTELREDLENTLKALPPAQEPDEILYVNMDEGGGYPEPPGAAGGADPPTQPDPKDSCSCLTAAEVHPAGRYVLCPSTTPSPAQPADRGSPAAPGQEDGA
Sequence of SRC (human) (P12931 whole entry, looked up): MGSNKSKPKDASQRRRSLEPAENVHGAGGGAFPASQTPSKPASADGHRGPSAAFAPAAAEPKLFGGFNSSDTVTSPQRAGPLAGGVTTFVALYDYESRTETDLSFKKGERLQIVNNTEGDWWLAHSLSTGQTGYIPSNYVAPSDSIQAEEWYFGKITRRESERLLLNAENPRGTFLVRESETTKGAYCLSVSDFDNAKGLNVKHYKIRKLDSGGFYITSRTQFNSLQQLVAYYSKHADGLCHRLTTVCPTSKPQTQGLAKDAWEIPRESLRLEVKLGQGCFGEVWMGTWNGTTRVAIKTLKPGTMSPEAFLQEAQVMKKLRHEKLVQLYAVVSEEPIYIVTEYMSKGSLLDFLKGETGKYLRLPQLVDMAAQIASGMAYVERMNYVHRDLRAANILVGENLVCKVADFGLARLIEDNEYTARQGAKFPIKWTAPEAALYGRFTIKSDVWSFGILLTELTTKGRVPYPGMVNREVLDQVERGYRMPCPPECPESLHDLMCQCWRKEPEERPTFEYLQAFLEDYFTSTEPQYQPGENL
Sequence of TEK (human) (Q02763 whole entry, looked up): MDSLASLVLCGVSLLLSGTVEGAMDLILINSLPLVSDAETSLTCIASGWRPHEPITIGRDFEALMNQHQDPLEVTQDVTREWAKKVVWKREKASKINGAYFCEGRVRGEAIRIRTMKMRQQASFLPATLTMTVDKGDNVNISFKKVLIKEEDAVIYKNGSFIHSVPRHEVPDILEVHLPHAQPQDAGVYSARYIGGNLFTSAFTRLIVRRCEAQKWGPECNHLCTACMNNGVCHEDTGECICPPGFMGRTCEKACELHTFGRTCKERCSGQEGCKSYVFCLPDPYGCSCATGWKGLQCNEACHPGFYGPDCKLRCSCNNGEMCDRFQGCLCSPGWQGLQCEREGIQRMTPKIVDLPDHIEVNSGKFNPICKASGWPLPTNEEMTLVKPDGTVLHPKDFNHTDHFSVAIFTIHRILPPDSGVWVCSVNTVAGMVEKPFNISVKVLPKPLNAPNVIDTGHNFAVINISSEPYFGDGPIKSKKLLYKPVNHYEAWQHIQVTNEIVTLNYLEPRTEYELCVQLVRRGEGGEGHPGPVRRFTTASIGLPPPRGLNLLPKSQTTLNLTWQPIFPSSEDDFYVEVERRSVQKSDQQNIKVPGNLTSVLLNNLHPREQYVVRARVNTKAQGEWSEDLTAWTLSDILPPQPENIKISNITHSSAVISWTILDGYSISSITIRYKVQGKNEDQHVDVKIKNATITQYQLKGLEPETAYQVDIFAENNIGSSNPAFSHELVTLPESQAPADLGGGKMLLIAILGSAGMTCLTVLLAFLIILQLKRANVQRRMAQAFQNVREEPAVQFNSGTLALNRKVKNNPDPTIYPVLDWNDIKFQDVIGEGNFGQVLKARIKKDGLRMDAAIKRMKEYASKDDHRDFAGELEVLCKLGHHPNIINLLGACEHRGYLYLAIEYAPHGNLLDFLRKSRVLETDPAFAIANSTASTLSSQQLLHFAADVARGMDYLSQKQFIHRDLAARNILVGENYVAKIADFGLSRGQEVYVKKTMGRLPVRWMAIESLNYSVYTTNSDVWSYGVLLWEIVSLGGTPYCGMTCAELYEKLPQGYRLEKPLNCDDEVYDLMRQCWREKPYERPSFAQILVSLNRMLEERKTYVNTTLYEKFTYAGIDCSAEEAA
Sequence of PDGFRB (human) (P09619 whole entry, looked up): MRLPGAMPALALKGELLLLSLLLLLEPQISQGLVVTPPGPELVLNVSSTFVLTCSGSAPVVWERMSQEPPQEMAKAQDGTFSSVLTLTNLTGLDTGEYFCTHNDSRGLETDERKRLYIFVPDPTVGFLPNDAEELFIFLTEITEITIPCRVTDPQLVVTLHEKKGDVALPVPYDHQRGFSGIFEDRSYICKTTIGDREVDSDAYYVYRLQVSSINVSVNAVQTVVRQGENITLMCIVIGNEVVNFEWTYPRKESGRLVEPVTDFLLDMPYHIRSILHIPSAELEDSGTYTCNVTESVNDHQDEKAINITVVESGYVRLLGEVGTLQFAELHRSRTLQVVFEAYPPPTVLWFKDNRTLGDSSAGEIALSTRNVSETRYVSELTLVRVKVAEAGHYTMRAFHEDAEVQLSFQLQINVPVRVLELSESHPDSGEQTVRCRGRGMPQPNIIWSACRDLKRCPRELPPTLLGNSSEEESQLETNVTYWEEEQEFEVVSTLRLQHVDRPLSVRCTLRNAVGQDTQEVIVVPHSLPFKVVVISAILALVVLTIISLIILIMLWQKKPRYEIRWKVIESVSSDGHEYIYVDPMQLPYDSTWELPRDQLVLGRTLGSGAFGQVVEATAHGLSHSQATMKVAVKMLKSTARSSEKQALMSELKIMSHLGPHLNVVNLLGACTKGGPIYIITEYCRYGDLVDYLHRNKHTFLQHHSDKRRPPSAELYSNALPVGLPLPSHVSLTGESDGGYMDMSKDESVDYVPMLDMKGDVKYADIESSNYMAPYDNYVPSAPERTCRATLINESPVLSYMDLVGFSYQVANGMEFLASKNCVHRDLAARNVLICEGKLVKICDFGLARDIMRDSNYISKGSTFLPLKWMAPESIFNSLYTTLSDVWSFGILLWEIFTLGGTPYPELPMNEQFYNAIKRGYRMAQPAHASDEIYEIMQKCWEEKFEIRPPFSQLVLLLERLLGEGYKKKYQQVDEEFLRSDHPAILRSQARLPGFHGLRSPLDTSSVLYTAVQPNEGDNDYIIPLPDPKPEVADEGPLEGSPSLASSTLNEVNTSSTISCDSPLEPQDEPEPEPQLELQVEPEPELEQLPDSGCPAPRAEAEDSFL
Sequence of KDR (human) (P35968 whole entry, looked up): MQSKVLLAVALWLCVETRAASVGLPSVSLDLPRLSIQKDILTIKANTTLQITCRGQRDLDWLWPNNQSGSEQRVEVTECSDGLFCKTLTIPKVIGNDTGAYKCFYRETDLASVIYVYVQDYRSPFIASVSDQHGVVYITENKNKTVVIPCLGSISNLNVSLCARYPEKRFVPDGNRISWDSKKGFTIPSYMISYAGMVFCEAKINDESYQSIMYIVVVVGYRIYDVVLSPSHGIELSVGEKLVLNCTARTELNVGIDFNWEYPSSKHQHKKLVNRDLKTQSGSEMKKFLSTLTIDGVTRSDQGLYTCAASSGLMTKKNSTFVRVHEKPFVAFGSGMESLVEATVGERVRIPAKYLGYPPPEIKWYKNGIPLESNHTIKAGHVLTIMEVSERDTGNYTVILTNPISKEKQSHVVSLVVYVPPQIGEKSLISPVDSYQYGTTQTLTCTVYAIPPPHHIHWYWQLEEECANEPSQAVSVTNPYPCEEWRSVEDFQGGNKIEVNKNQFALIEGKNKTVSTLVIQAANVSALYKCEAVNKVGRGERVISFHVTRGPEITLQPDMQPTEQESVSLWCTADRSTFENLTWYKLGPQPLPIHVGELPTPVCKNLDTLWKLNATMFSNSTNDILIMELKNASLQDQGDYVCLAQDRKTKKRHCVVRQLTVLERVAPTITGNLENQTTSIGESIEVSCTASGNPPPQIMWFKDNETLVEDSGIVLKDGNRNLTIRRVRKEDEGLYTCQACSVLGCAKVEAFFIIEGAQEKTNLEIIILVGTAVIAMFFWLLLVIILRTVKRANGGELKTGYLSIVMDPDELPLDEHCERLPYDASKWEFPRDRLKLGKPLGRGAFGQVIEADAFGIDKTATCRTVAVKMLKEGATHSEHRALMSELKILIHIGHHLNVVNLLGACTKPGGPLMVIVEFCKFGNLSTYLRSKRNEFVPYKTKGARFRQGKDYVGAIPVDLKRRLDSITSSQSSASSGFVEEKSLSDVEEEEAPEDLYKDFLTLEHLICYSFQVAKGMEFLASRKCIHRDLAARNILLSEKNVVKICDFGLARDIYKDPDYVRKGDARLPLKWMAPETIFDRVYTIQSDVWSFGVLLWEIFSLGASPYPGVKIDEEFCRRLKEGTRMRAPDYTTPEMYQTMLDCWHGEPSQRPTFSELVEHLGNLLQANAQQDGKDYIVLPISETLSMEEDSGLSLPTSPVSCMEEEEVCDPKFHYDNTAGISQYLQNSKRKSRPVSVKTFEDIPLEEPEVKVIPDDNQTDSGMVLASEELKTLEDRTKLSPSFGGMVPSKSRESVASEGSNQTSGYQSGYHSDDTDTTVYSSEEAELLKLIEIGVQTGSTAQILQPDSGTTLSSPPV

For `Fc1ccc(-c2[nH]c(SCC3CCCCC3)nc2-c2ccncc2)cc1`, the residual activity was 36% at TEK (human); 56% at AKT1 (human); 22% on IGF1R (human); 83% on PLK1 (human); 48% at KDR (human); 46% at AURKA (human). Also, the residual activity at MET (human) turned out to be 73%; at MAPK10 (human), 63%; at MAP3K8 (human), 73%; at NUAK1 (human) it was 91%; on CDK4 CCND1 (human), 44%; on EGFR (human), 24%. Further, the residual activity came to 80% at AURKB (human); 38% at SRC (human); 106% on PTK2 (human); 23% on MAPK14 (human); 34% at PLK4 (human); 74% at CDK2 CCNA2 (human). In addition, the residual activity was 86% at CSNK2A1 (human); 81% on PDGFRB (human); 46% at ERBB2 (human); 63% on AXL (human); 38% at EPHB4 (human).

With `CSc1ccccc1CSc1nc(-c2ccncc2)c(-c2ccc(F)cc2)[nH]1`, the residual activity at TEK (human) is 48%; on AKT1 (human), 137%; at IGF1R (human), 60%; on PLK1 (human), 82%; at KDR (human), 51%; at AURKA (human) it was 80%. For the same compound, the residual activity was determined as 76% at MET (human); 58% on MAPK10 (human); 85% at MAP3K8 (human); 95% at NUAK1 (human); 89% on CDK4 CCND1 (human); 30% on EGFR (human). Moreover, the residual activity was determined as 79% on AURKB (human); 29% on SRC (human); 98% on PTK2 (human); 10% on MAPK14 (human); 59% on PLK4 (human); 66% at CDK2 CCNA2 (human). For the same compound, the residual activity at CSNK2A1 (human) amounted to 83%; at PDGFRB (human) it was 85%; at ERBB2 (human), 29%; at AXL (human), 85%; at EPHB4 (human), 52%.

Take `Fc1ccc(-c2[nH]c(SCc3ccccc3)nc2-c2ccncc2)cc1`: the residual activity is 50% on TEK (human); 110% on AKT1 (human); 72% at IGF1R (human); 94% on PLK1 (human); 58% at KDR (human); 79% at AURKA (human). Moreover, the residual activity amounted to 89% at MET (human); 41% on MAPK10 (human); 76% at MAP3K8 (human); 93% at NUAK1 (human); 101% on CDK4 CCND1 (human); 19% at EGFR (human). The residual activity stood at 80% on AURKB (human); 42% at SRC (human); 86% at PTK2 (human); 3% on MAPK14 (human); 71% at PLK4 (human); 77% on CDK2 CCNA2 (human). Moreover, the residual activity came out at 94% at CSNK2A1 (human); 76% on PDGFRB (human); 23% on ERBB2 (human); 82% at AXL (human); 49% at EPHB4 (human).

As to `Fc1ccc(-c2[nH]c(SCCCc3ccccc3)nc2-c2ccncc2)cc1`, the residual activity was 65% at TEK (human); 98% on AKT1 (human); 49% on IGF1R (human); 92% on PLK1 (human); 52% at KDR (human); 88% at AURKA (human). The residual activity on MET (human) worked out at 81%; at MAPK10 (human) it was 56%; on MAP3K8 (human) it was 85%; on NUAK1 (human) it was 89%; on CDK4 CCND1 (human), 99%; on EGFR (human), 31%. In addition, the residual activity at AURKB (human) is 88%; at SRC (human), 33%; at PTK2 (human), 99%; on MAPK14 (human) it was 10%; at PLK4 (human) it was 74%; on CDK2 CCNA2 (human), 54%. In addition, the residual activity amounted to 87% on CSNK2A1 (human); 80% on PDGFRB (human); 30% on ERBB2 (human); 71% at AXL (human); 55% at EPHB4 (human).

`CSc1nc(-c2ccnc(N(C(=O)C3CC3)C(=O)C3CC3)c2)c(-c2ccc(F)cc2)n1C`: the residual activity on TEK (human) came out at 24%; at AKT1 (human), 122%; on IGF1R (human) it was 36%; at PLK1 (human) it was 118%; on KDR (human), 14%; at AURKA (human) it was 56%. The residual activity on MET (human) amounted to 99%; at MAPK10 (human), 18%; on MAP3K8 (human) it was 106%; on NUAK1 (human), 106%; on CDK4 CCND1 (human) it was 112%; at EGFR (human), 26%. Besides, the residual activity on AURKB (human) worked out at 57%; on SRC (human), 19%; on PTK2 (human), 79%; at MAPK14 (human), 4%; at PLK4 (human) it was 54%; on CDK2 CCNA2 (human), 211%. The residual activity on CSNK2A1 (human) was 90%; on PDGFRB (human) it was 50%; on ERBB2 (human) it was 26%; at AXL (human), 38%; at EPHB4 (human), 21%.

Regarding `Oc1ccccc1CSc1nc(-c2ccncc2)c(-c2ccc(F)cc2)[nH]1`, the residual activity was 32% on TEK (human); 137% on AKT1 (human); 49% at IGF1R (human); 104% on PLK1 (human); 42% at KDR (human); 74% on AURKA (human). Besides, the residual activity amounted to 71% at MET (human); 46% at MAPK10 (human); 91% on MAP3K8 (human); 108% at NUAK1 (human); 79% at CDK4 CCND1 (human); 11% at EGFR (human). Further, the residual activity on AURKB (human) was 74%; on SRC (human), 32%; at PTK2 (human), 128%; on MAPK14 (human) it was 6%; at PLK4 (human), 38%; at CDK2 CCNA2 (human), 54%. In addition, the residual activity at CSNK2A1 (human) is 90%; at PDGFRB (human), 64%; on ERBB2 (human) it was 11%; on AXL (human), 96%; on EPHB4 (human), 44%.

What is called residual activity is the signal under treatment as a percentage of the control signal.
